Patent publication US8426345B2, “Method of drug design” (Alchemia Limited, priority 2005, dated 2013)

Molecular target: T1, Human SST5 somatostatin receptor (Homo sapiens, UniProt P35346)
T1 construct: expressed in transfected cells; host or cells: HEK-293 EBNA cells (membranes)
Test: Filter plate radio-ligand binding assay for SST5 receptor ([125I]SST-14 displacement)
Conditions: for % SST5 radio-ligand binding displaced at conc 0.25: conc 0.25 μM; for % SST5 radio-ligand binding displaced at conc 1.0: conc 1.0 μM; for % SST5 radio-ligand binding displaced at conc 0.5: conc 0.5 μM; for % SST5 radio-ligand binding displaced at conc 10: conc 10 μM

[1] = compound conc 50 μM, 2P library
[2] = compound conc 250 μM, 2P library
[3] = compound conc 500 μM, 2P library

T1 sequence (P35346 whole entry): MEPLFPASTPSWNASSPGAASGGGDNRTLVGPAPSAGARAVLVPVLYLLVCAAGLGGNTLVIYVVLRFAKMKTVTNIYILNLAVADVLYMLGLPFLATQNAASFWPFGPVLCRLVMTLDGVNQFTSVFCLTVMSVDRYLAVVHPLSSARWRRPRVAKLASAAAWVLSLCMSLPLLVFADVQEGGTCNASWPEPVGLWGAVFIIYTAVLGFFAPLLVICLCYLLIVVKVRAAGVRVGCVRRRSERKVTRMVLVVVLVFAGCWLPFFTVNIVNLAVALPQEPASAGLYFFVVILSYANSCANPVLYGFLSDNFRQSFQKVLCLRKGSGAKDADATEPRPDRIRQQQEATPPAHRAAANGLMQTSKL

SMILES | % SST5 radio-ligand binding displaced at conc 50 [1] | % SST5 radio-ligand binding displaced at conc 250 [2] | % SST5 radio-ligand binding displaced at conc 500 [3] | % SST5 radio-ligand binding displaced at conc 0.25 (3P library) | % SST5 radio-ligand binding displaced at conc 1.0 (3P library) | further results
CO[C@@H]1[C@H](O)[C@@H](COCc2ccc(Cl)cc2)O[C@@H](SC)[C@@H]1NC(=O)CCCN [Compound 41] | − (% SST5 radio-ligand binding displaced at cone (μM) −<40%) | − (% SST5 radio-ligand binding displaced at cone (μM) −<40%) | − (% SST5 radio-ligand binding displaced at cone (μM) −<40%) | – | – | –
CO[C@@H]1[C@H](O)[C@@H](COCc2ccc3ccccc3c2)O[C@@H](SC)[C@@H]1NC(=O)CCCN [Compound 42] | − (% SST5 radio-ligand binding displaced at cone (μM) −<40%) | − (% SST5 radio-ligand binding displaced at cone (μM) −<40%) | + (% SST5 radio-ligand binding displaced at cone (μM) 60>+>40%) | – | – | –
COC[C@H]1O[C@@H](SC)[C@H](NC(=O)CCCN)[C@H](OCc2ccc(Cl)cc2)[C@@H]1O [Compound 43] | − (% SST5 radio-ligand binding displaced at cone (μM) −<40%) | − (% SST5 radio-ligand binding displaced at cone (μM) −<40%) | − (% SST5 radio-ligand binding displaced at cone (μM) −<40%) | – | – | –
COC[C@H]1O[C@@H](OCc2ccc(Cl)cc2)[C@H](NC(=O)CCCN)[C@H](OC)[C@@H]1O [Compound 44] | − (% SST5 radio-ligand binding displaced at cone (μM) −<40%) | − (% SST5 radio-ligand binding displaced at cone (μM) −<40%) | ++ (% SST5 radio-ligand binding displaced at conc (μM) >60%) | – | – | –
COC[C@H]1O[C@@H](OCc2ccc3ccccc3c2)[C@H](NC(=O)CCCN)[C@H](OC)[C@@H]1O [Compound 45] | − (% SST5 radio-ligand binding displaced at cone (μM) −<40%) | + (% SST5 radio-ligand binding displaced at cone (μM) 60>+>40%) | ++ (% SST5 radio-ligand binding displaced at conc (μM) >60%) | – | – | –
COC[C@H]1O[C@@H](SC)[C@H](NC(=O)CCN)[C@H](OCc2ccc3ccccc3c2)[C@@H]1O [Compound 57] | − (% SST5 radio-ligand binding displaced at cone (μM) −<40%) | − (% SST5 radio-ligand binding displaced at cone (μM) −<40%) | − (% SST5 radio-ligand binding displaced at cone (μM) −<40%) | – | – | –
COC[C@H]1O[C@@H](SC)[C@H](NC(=O)CCCN)[C@H](OCc2ccc3ccccc3c2)[C@@H]1O [Compound 58] | − (% SST5 radio-ligand binding displaced at cone (μM) −<40%) | − (% SST5 radio-ligand binding displaced at cone (μM) −<40%) | − (% SST5 radio-ligand binding displaced at cone (μM) −<40%) | – | – | –
COC[C@H]1O[C@H](OCc2ccc3ccccc3c2)[C@H](NC(=O)CCN)[C@H](OC)[C@@H]1O [Compound 59] | + (% SST5 radio-ligand binding displaced at cone (μM) 60>+>40%) | ++ (% SST5 radio-ligand binding displaced at conc (μM) >60%) | ++ (% SST5 radio-ligand binding displaced at conc (μM) >60%) | – | – | –
COC[C@H]1O[C@H](OCc2ccc3ccccc3c2)[C@H](NC(=O)CCN)[C@@H](OC)[C@@H]1O [Compound 60] | – | – | – | – | – | % SST5 radio-ligand binding displaced at conc 50 (conc 50 μM, 3P library): − (% SST5 radio-ligand binding displaced at cone (μM) −<40%); % SST5 radio-ligand binding displaced at conc 250 (conc 250 μM, 3P library): + (% SST5 radio-ligand binding displaced at cone (μM) 60>+>40%); % SST5 radio-ligand binding displaced at conc 500 (conc 500 μM, 3P library): ++ (% SST5 radio-ligand binding displaced at conc (μM) >60%)
COC[C@H]1O[C@@H](OCc2ccc3ccccc3c2)[C@H](NC(=O)CCN)[C@@H](OC)[C@@H]1O [Compound 61] | – | – | – | – | – | % SST5 radio-ligand binding displaced at conc 50 (conc 50 μM, 3P library): − (% SST5 radio-ligand binding displaced at cone (μM) −<40%); % SST5 radio-ligand binding displaced at conc 250 (conc 250 μM, 3P library): + (% SST5 radio-ligand binding displaced at cone (μM) 60>+>40%); % SST5 radio-ligand binding displaced at conc 500 (conc 500 μM, 3P library): ++ (% SST5 radio-ligand binding displaced at conc (μM) >60%)
COC[C@H]1O[C@@H](OCc2ccc3ccccc3c2)[C@H](NC(=O)CCN)[C@H](OC)[C@@H]1O [Compound 62] | – | – | – | – | – | % SST5 radio-ligand binding displaced at conc 50 (conc 50 μM, 3P library): − (% SST5 radio-ligand binding displaced at cone (μM) −<40%); % SST5 radio-ligand binding displaced at conc 250 (conc 250 μM, 3P library): ++ (% SST5 radio-ligand binding displaced at conc (μM) >60%); % SST5 radio-ligand binding displaced at conc 500 (conc 500 μM, 3P library): ++ (% SST5 radio-ligand binding displaced at conc (μM) >60%)
COC[C@H]1O[C@H](OCc2ccc3ccccc3c2)[C@H](NC(=O)CCN)[C@H](OC)[C@@H]1O [Compound 63] | – | – | – | – | – | % SST5 radio-ligand binding displaced at conc 50 (conc 50 μM, 3P library): + (% SST5 radio-ligand binding displaced at cone (μM) 60>+>40%); % SST5 radio-ligand binding displaced at conc 250 (conc 250 μM, 3P library): ++ (% SST5 radio-ligand binding displaced at conc (μM) >60%); % SST5 radio-ligand binding displaced at conc 500 (conc 500 μM, 3P library): ++ (% SST5 radio-ligand binding displaced at conc (μM) >60%)
NCCC(=O)NC1C(OCc2ccc3ccccc3c2)OC(COCc2ccc3ccccc3c2)C(O)C1OCc1ccc2ccccc2c1 (centres unmarked) [Compound 79] | – | – | – | − (% SST5 radio-ligand binding displaced at cone (μM) −<40%) | ++ (% SST5 radio-ligand binding displaced at conc (μM) >60%) | –
NCCC(=O)NC1C(OCc2ccc3ccccc3c2)OC(COCc2ccc3ccccc3c2)C(O)C1OCc1ccc2ccccc2c1 (centres unmarked) [Compound 80] | – | – | – | − (% SST5 radio-ligand binding displaced at cone (μM) −<40%) | ++ (% SST5 radio-ligand binding displaced at conc (μM) >60%) | –
NCCC(=O)NC1C(OCc2ccc3ccccc3c2)OC(COCc2ccccc2)C(O)C1OCc1ccc2ccccc2c1 (centres unmarked) [Compound 81] | – | – | – | − (% SST5 radio-ligand binding displaced at cone (μM) −<40%) | ++ (% SST5 radio-ligand binding displaced at conc (μM) >60%) | –
NCCC(=O)NC1C(OCc2ccc3ccccc3c2)OC(COCc2ccccc2)C(O)C1OCc1ccc2ccccc2c1 (centres unmarked) [Compound 82] | – | – | – | + (% SST5 radio-ligand binding displaced at cone (μM) 60>+>40%) | ++ (% SST5 radio-ligand binding displaced at conc (μM) >60%) | –
NCCC(=O)NC1C(OCc2ccc3ccccc3c2)OC(COCc2ccc(Cl)cc2)C(O)C1OCc1ccc2ccccc2c1 (centres unmarked) [Compound 83] | – | – | – | − (% SST5 radio-ligand binding displaced at cone (μM) −<40%) | ++ (% SST5 radio-ligand binding displaced at conc (μM) >60%) | –
NCCC(=O)NC1C(OCc2ccc3ccccc3c2)OC(COCc2ccc(Cl)cc2)C(O)C1OCc1ccc2ccccc2c1 (centres unmarked) [Compound 84] | – | – | – | − (% SST5 radio-ligand binding displaced at cone (μM) −<40%) | ++ (% SST5 radio-ligand binding displaced at conc (μM) >60%) | –
COC[C@H]1O[C@@H](OCc2ccc3ccccc3c2)[C@H](NC(=O)CCN)[C@H](OCc2ccc3ccccc3c2)[C@@H]1O [Compound 85] | – | – | – | – | – | % SST5 radio-ligand binding displaced at conc 0.5 (3P library): ++ (% SST5 radio-ligand binding displaced at conc (μM) >60%); % SST5 radio-ligand binding displaced at conc 10 (3P library): ++ (% SST5 radio-ligand binding displaced at conc (μM) >60%)
COC[C@H]1O[C@H](OCc2ccc3ccccc3c2)[C@H](NC(=O)CCN)[C@H](OCc2ccc3ccccc3c2)[C@@H]1O [Compound 86] | – | – | – | – | – | % SST5 radio-ligand binding displaced at conc 0.5 (3P library): ++ (% SST5 radio-ligand binding displaced at conc (μM) >60%); % SST5 radio-ligand binding displaced at conc 10 (3P library): ++ (% SST5 radio-ligand binding displaced at conc (μM) >60%)
COC[C@H]1O[C@H](OCc2ccc3ccccc3c2)[C@H](NC(=O)CCN)[C@@H](OCc2ccc3ccccc3c2)[C@@H]1O [Compound 98] | – | – | – | + (% SST5 radio-ligand binding displaced at cone (μM) 60>+>40%) | ++ (% SST5 radio-ligand binding displaced at conc (μM) >60%) | –
COC[C@H]1O[C@H](OCc2ccc3ccccc3c2)[C@H](NC(=O)C(C)CN)[C@@H](OCc2ccc3ccccc3c2)[C@@H]1O (some centres unmarked) [Compound 99] | – | – | – | − (% SST5 radio-ligand binding displaced at cone (μM) −<40%) | + (% SST5 radio-ligand binding displaced at cone (μM) 60>+>40%) | –
COC[C@H]1O[C@H](OCc2ccc3ccccc3c2)[C@H](NC(=O)CC(C)N)[C@@H](OCc2ccc3ccccc3c2)[C@@H]1O (some centres unmarked) [Compound 100] | – | – | – | + (% SST5 radio-ligand binding displaced at cone (μM) 60>+>40%) | ++ (% SST5 radio-ligand binding displaced at conc (μM) >60%) | –
COC[C@H]1O[C@H](OCc2ccc3ccccc3c2)[C@H](NC(=O)C2CNC2)[C@@H](OCc2ccc3ccccc3c2)[C@@H]1O [Compound 101] | – | – | – | − (% SST5 radio-ligand binding displaced at cone (μM) −<40%) | + (% SST5 radio-ligand binding displaced at cone (μM) 60>+>40%) | –
COC[C@H]1O[C@H](OCc2ccc3ccccc3c2)[C@H](NC(=O)CCN2CCCCC2)[C@@H](OCc2ccc3ccccc3c2)[C@@H]1O [Compound 102] | – | – | – | − (% SST5 radio-ligand binding displaced at cone (μM) −<40%) | − (% SST5 radio-ligand binding displaced at cone (μM) −<40%) | –
